Measured values taken from ChEMBL document CHEMBL1201862, “PubChem BioAssay data set” (2004).
The source made the active and inactive calls.

How the values were obtained:
Aminopeptidase N = biological target: T1, Aminopeptidase N (Plasmodium falciparum FcB1/Columbia, UniProt O96935); test: malaria alanyl aminopeptidase activity blockers – biochemical, fluorogenic H-Leu-NHMec substrate, 1536-well (AID 1445); design: species or system Plasmodium falciparum 3D7, 3D7
T1 sequence (O96935 whole entry): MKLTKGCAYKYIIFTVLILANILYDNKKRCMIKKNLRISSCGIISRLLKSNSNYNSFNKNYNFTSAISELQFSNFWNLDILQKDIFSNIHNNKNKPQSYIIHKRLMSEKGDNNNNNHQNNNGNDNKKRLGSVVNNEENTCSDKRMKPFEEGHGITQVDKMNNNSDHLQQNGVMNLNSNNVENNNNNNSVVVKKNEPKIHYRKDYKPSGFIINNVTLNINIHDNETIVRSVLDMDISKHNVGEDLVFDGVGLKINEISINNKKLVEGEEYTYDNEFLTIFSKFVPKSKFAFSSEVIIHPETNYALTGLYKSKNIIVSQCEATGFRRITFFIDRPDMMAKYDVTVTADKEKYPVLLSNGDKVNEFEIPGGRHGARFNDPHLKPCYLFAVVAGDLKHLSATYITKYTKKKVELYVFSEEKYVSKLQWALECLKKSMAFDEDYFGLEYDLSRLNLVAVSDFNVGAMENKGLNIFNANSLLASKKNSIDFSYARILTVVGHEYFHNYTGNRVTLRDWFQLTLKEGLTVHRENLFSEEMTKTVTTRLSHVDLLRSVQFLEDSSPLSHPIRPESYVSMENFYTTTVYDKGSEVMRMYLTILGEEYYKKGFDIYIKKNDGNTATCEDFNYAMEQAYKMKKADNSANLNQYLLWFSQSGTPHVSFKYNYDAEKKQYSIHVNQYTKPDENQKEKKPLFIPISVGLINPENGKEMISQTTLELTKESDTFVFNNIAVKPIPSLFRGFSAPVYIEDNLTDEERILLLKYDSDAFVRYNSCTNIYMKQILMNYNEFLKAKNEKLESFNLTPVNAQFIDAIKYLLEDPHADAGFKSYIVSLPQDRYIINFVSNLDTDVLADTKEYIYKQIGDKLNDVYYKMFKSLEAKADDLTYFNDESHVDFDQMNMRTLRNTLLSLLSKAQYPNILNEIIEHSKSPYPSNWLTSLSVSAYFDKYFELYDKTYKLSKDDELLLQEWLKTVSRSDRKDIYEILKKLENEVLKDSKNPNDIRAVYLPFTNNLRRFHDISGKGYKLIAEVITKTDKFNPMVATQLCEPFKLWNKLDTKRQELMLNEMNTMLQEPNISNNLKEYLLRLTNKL

[1] = THP-1 cell cytotoxicity, dose response, cytotoxicity control for non-replicating M. tuberculosis project (AID 489025); type: functional
[2] = biological target: T2, Ubiquitin-conjugating enzyme E2 N (Homo sapiens, UniProt P61088); type: functional;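 also: Dose-response confirmation in a TR-FRET assay detecting UBC13-driven polyubiquitin chain formation, inhibition measured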
T2 sequence (P61088 whole entry): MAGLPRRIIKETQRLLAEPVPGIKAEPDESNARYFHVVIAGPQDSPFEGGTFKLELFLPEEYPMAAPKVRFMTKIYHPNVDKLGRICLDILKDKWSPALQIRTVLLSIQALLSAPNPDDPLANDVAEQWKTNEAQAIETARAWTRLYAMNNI

cells = type: functional
Nonstructural protein 1 = Nonstructural protein 1 (Influenza A virus, UniProt Q194T2); type: functional, Influenza A virus (A/California/07/2009(H1N1))
Chain of Nonstructural protein 1 (Q194T2 whole entry): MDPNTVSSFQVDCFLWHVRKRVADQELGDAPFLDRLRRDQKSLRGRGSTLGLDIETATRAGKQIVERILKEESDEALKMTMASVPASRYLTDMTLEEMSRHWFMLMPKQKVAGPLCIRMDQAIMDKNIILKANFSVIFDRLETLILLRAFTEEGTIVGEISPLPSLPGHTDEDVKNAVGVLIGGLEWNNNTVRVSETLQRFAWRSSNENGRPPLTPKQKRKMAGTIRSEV

[3] = HEK-293T viability loss after treatment – luminescence, T-cell screen hits, cytotoxicity control for TCR NF-kB inhibitor project, dose response (AID 489026); type: functional, cell-based;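 also: cells exposed to compound about 14 hours before the viability readout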
[4] = reduction of Shn3 3'UTR-driven luciferase in osteoblasts – cell-based, Clone20 osteoblasts, firefly luciferase, cherry-picked, dose response (AID 624132); type: functional;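 also: firefly luciferase luminescence from reporter carrying the Shn3 3'UTR in osteoblasts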
[5] = loss of viability in HepG2 cells – cell-based, CellTiter-Glo, cherry-picked, cytotoxicity control for Shn3 inhibitor project, dose response (AID 624134); type: functional
[6] = non-specific 3'UTR reporter inhibition in Clone20-Shn3RL – cell-based, Renilla luciferase, cherry-picked, counter-screen for Shn3 inhibitor project, dose response (AID 624133); type: functional
[7] = Trypanosoma cruzi growth suppression in host cells – NIH3T3 host cells, beta-gal luminescence, confirmation (AID 2044); type: functional, cell-based;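 also: intracellular parasites grown in NIH/3T3 mouse fibroblasts as host cells; luminescent beta-galactosidase reporter signal from transgenic T. cruzi replicating inside host cells; inhibitors lower the luminescence signal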
[8] = NIH3T3 cell viability loss – ATP luminescence, mouse fibroblasts, counter-screen, dose response (AID 2010); type: functional, cell-based;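 also: cells exposed to compound for about 90 hours before reading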
[9] = biological target: T3, High affinity choline transporter 1 (Homo sapiens, UniProt Q9GZV3); test: human choline transporter blockers, potency – cell-based, 5-point CRC, membrane potential dye, dose response (AID 504840); type: functional
T3 sequence (Q9GZV3 whole entry): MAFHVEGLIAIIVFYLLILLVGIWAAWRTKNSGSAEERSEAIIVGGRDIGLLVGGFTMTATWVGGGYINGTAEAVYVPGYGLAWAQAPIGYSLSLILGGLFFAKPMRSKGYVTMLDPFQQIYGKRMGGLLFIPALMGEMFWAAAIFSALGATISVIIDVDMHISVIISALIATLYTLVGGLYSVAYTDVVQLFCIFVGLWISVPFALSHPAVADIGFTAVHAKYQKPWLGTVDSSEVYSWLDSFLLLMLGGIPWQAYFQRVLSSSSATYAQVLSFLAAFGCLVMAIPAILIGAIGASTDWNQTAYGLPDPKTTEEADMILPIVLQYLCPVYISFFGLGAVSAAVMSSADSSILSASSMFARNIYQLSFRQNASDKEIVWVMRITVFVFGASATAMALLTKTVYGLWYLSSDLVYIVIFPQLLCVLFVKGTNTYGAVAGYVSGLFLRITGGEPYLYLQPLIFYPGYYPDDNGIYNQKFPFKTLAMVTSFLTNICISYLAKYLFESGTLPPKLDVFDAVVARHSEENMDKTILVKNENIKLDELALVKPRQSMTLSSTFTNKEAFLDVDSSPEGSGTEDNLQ

[10] = A549 cell cytotoxicity, dose response, cytotoxicity control, plate reader, cherry-pick, antagonist series (AID 743412); type: functional, cell-based
BJ [11] = test: BJ-TERT fibroblast viability loss – cell-based, RAS-independent, luminescence, dose response (AID 1933); type: functional; settings: Homo sapiens
BJ [12] = test: cells; type: functional, cell-based; settings: Homo sapiens
BJ [13] = test: BJ-TERT-LT-ST fibroblast viability loss – cell-based, RAS-independent, luminescence, dose response (AID 1935); type: functional; settings: Homo sapiens;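 also: BJ fibroblasts immortalized with TERT plus LT and ST oncogenes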
[14] = DRD fibroblast viability loss – cell-based, non-viral oncogenic, luminescence, dose response (AID 1934); type: functional; settings: Homo sapiens
[15] = biological target: T4, Microphthalmia-associated transcription factor (Homo sapiens, UniProt O75030); test: reducers of TRPM1 reporter luminescence, concentration series – cell-based, SK-MEL-5, cherry-picked, set 3, MITF inhibitor project, dose response (AID 493073); type: functional;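 also: SK-MEL-5 melanoma cells with luciferase driven by the MITF target TRPM1 promoter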
T4 sequence (O75030 whole entry): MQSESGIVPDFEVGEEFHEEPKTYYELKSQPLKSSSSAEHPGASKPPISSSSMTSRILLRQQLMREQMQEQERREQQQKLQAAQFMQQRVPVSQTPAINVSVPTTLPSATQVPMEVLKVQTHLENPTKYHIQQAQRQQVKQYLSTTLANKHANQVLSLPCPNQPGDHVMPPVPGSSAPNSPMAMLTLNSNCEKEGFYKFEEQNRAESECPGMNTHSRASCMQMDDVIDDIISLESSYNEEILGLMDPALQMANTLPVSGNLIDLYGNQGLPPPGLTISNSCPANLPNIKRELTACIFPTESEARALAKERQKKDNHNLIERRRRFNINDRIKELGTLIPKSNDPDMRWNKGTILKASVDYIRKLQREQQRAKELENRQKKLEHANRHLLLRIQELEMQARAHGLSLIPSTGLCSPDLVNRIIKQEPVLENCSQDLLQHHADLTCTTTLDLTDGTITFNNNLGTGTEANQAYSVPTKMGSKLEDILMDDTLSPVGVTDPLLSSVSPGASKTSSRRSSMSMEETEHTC

[16] = biological target: Heat shock protein HSP 90-alpha (Homo sapiens, UniProt P07900); type: functional, organism-based
INS1 = test: INS-1E survival protection against cytokine death – cell-based, luminescence, retest, dose response (AID 449756); type: functional; settings: Rattus norvegicus;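 also: cell death triggered by IL-1 beta plus TNF-alpha plus IFN-gamma mixture; protective hits raise ATP signal compared with cytokine alone wells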
P388/ADR = test: cells; type: functional; settings: Mus musculus
SN12K1 = test: cells; type: functional; settings: Homo sapiens
[17] = Luminescence Cell-Based Dose Retest to Confirm Inhibitors of Cancer Stem Cells. [Related pubchem assays (depositor defined):AID2717, AID2721]; type: functional; settings: Homo sapiens

O=C(O)c1cccc(N2C(=O)c3cccc4c(Cl)ccc(c34)C2=O)c1
IC50 (Aminopeptidase N): 83.3 µM (active)

NC1=NC[C@H](Cc2ccc(O)cc2)N1CCc1cccc2ccccc12
CC50 [1]: > 40 µM (active)
IC50 [2]: > 20 µM (inactive)
IC50 (cells): 9.5 µM (active)

N#Cc1cc2c(nc1SCc1ccccc1)CCCC2=O
IC50 (Aminopeptidase N): 86.4 µM (active)

COC(=O)c1ccc(CSc2nc3c(c(=O)n2-c2ccccc2)SCC3)o1
IC50 (Nonstructural protein 1): > 100 µM (active)

CN(C)Cc1c(O)c(Cl)cc2c3c(c(=O)oc12)CCCC3
IC50 (Aminopeptidase N): 30.1 µM (active)

CCn1c(CNC(=O)c2cccs2)nnc1SCC(=O)Nc1cc(Cl)ccc1C
IC50 (Aminopeptidase N): 6.86 µM (active)

COc1ccc(CCN2C(=O)C3C4C=CC(C3C2=O)C2C(=O)N(CCc3ccc(OC)c(OC)c3)C(=O)C42)cc1OC (stereo not drawn)
IC50 [3]: > 80 µM (inactive)

CC(C)(C)C(=O)/C(=C/c1ccc(Cl)cc1)n1cncn1
AC50 [4]: 3.75 µM (active)
AC50 [5]: 18 µM (active)
AC50 [6]: 10.8 µM (active)

Cc1ccc(OCCCCn2ccnc2)c(Cl)c1
EC50 [7]: 1.37 µM (active)
EC50 [8]: > 60 µM (not active)
CC50 [1]: > 40 µM (active)
IC50 (cells): 39.1 µM (active)

Cc1ccc(-c2cc(C(F)F)n3ncc(C(=O)N4CCc5ccccc54)c3n2)cc1
IC50 [3]: > 80 µM (inactive)

CCc1c(C)nc2ccccc2c1O
IC50 [9]: 13.2 µM (active)

C[C@H](CO)N1C[C@H](C)[C@H](CN(C)C(=O)CN2CCOCC2)Oc2ncc(C#CCN(C)C)cc2C1=O
AC50 [10]: > 52 µM (inactive)

COCCNc1oc(/C=C/c2ccccc2)nc1C#N
IC50 (Aminopeptidase N): 36.7 µM (active)

C=CCN1C(=O)/C(=N\Nc2c(C)n(C)n(-c3ccccc3)c2=O)C(=O)NC1=S
IC50 (Nonstructural protein 1): 2.29 µM (active)

Cc1cc([N+](=O)[O-])c(NC2CCCCC2)c([N+](=O)[O-])c1
IC50 (Nonstructural protein 1): 41.5 µM (active)

CC(C)(C)c1nnc(N/N=C/c2ccccc2O)n(N)c1=O
EC50 (BJ [11]): 1.86 µM (active)
EC50 (BJ [12]): 8.53 µM (inconclusive)
EC50 (BJ [13]): 15.1 µM (active)
EC50 [14]: 2.47 µM (active)
IC50 [3]: > 80 µM (inactive)
IC50 (Nonstructural protein 1): 5.93 µM (active)

CCCC(=O)NC(c1ccc(OC)c(OC)c1)c1cc(Cl)c2cccnc2c1O (stereo not drawn)
EC50 [7]: 1.2 µM (active)
EC50 [8]: < 6 µM (inconclusive)
AC50 [15]: 9.06 µM (active)
AC50 [16]: 12.4 µM (active)
AC50 (INS1): 1.69 µM (active)

O=C(CCSc1nnc(-c2ccncc2)o1)Nc1ccc(Cl)cc1
IC50 (cells): 29.5 µM (active)
AC50 [16]: 1.65 µM (active)

Cc1ccc(NC(=O)C2CCN(S(=O)(=O)c3ccc(N4CCCC4=O)cc3)CC2)cc1Cl
AC50 (INS1): 1.93 µM (active)
AC50 [4]: 0.549 µM (active)
AC50 [5]: > 70 µM (inactive)
AC50 [6]: 0.808 µM (active)

Cc1cc(C)n(CC(=O)N/N=C/c2cc([N+](=O)[O-])ccc2O)n1
IC50 (Nonstructural protein 1): 10.8 µM (active)

O=C(Sc1cccc2cccnc12)c1ccc(F)cc1
IC50 [3]: > 80 µM (inactive)

O=C(Nn1c(SCc2ccc(F)cc2)nc2ccsc2c1=O)c1ccccc1
IC50 (Aminopeptidase N): 55.6 µM (active)

O=C(O)/C=C/c1c[nH]cn1
GI50 (P388/ADR): > 500 µM (inactive)
GI50 (SN12K1): > 500 µM (inactive)

Cc1ccc(N=C(N)Nc2nc(O)cc(CSc3nnc(C)s3)n2)c(C)c1
IC50 [3]: > 80 µM (inactive)

COc1cc2cnc(-c3ccccc3)c(C(=O)c3ccc(F)cc3)c2cc1OC
AC50 [16]: 2.12 µM (active)

Oc1ccc(C=NNC(=S)Nc2ccc(F)cc2)c(O)c1
IC50 (Nonstructural protein 1): 14.6 µM (active)

O=C1C=CC(=O)N1c1ccc2c(c1)Cc1cc(F)ccc1-2
AC50 [16]: < 0.195 µM (active)

CCOC(=O)C1=C(COC(=O)c2ccc(OC(C)C)cc2)NC(=O)NC1C (stereo not drawn)
IC50 [9]: 16.6 µM (active)

O=C(c1ccc2c(=O)n(-c3ccccc3)c(=S)[nH]c2c1)N1CCCCC1
AC50 [4]: 1.44 µM (active)
AC50 [5]: 64.2 µM (active)
AC50 [6]: 3.14 µM (active)

CCCOc1ccc(/C=N/Nc2cc(N3CCOCC3)ncn2)c(O)c1
AC50 [17]: 2.87 µM (active)
IC50 [3]: > 80 µM (inactive)
AC50 (INS1): 2.27 µM (active)

Cc1ccc(C[S+]([O-])Cc2ccc(C(=O)NC3CCCCCC3)o2)cc1 (stereo not drawn)
IC50 [9]: 14.5 µM (active)

O=C1N=C(NS(=O)(=O)c2ccccc2)S/C1=C1\C(=O)Nc2ccccc21
IC50 (Aminopeptidase N): 25.1 µM (active)

O=C(CSc1nnnn1-c1ccc(O)cc1)Nc1cccc(S(=O)(=O)N2CCCC2)c1
AC50 [15]: 50.2 µM (active)
